Values of other authors as cited in patent US20200353086A1, “CONTROLLED-RELEASE FORMULATIONS” (CAMURUS AB, priority 2014, published 2020).
*1 amine or outer side, *2 acyl side, *3 side chain or, on linkers, in order; H or OH if unused. Where a SMILES comes first, the peptide text is derived from it. Side-chain parts run from the residue outwards. [ ]: non-standard residue; d: D form. The star is where a group is joined. Ethylenediamine = C(CN[*:2])N[*:1]; Hyp = O=C(O)[C@@H]1C[C@@H](O)CN1; Phg = N[C@H](C(=O)O)c1ccccc1; CO = O=C([*:1])[*:2]; Bn = c1ccc(C*)cc1

Columns and labels:
[1] = tested on: somatostatin receptors (SSTRs)
[2] = human, single subcutaneous dose

Row | Compound | biological half-life (natural SST-14) | affinity for somatostatin receptor subtypes [1] | initial half-life following the peak [2] | terminal half-life (in vivo) | selectivity between somatostatin receptor subtypes [1]
1 | Ala-Gly-Cys-Lys-Asn-Phe-Phe-Trp-Lys-Thr-Phe-Thr-Ser-Cys [SST-14] | 1-3 minutes | equally high affinity |  |  | 
2 | NCCCC[C@@H]1NC(=O)[C@@H](Cc2c[nH]c3ccccc23)NC(=O)[C@H](c2ccccc2)NC(=O)[C@@H]2C[C@@H](OC(=O)NCCN)CN2C(=O)[C@H](Cc2ccccc2)NC(=O)[C@H](Cc2ccc(OCc3ccccc3)cc2)NC1=O [Pasireotide] (cyclo([Hyp]([CO-Ethylenediamine])[Phg][dW]KY(Bn)F)) |  | high affinity for somatostatin receptor subtypes sstr1,2,3 and sstr5 | 2 to 3 h |  | 
3 | C[C@@H](O)[C@@H]1NC(=O)[C@H](CCCCN)NC(=O)[C@@H](Cc2c[nH]c3ccccc23)NC(=O)[C@H](Cc2ccccc2)NC(=O)[C@@H](NC(=O)[C@H](N)Cc2ccccc2)CSSC[C@@H](C(=O)N[C@H](CO)[C@@H](C)O)NC1=O [Octreotide, D-Phe-Cys-Phe-D-Trp-Lys-Thr-Cys-Thr-ol (2-7 disulphide bridge)] |  |  |  | around 1.7 hours | high selectivity for SSTR2 and SSTRS
